Measurements as given in ChEMBL document CHEMBL4196183, “Discovery of New Allosteric Modulators of the Urotensinergic System through Substitution of the Urotensin II-Related Peptide (URP) Phenylalanine Residue” (J Med Chem, 2018).

Assays:
Urotensin-2 receptor [1] = biological target: T1, Urotensin-2 receptor (Homo sapiens, UniProt Q9UKP6); test: Agonist activity at human UT receptor expressed in HEK293 cells co-expressing beta-arrestin1-polycistronic BRET biosensor assessed as induction of beta-arrestin1 recruitment measured for 5 mins by luminescence detection based BRET assay; format: functional, cell-based
T1 sequence (Q9UKP6 whole entry): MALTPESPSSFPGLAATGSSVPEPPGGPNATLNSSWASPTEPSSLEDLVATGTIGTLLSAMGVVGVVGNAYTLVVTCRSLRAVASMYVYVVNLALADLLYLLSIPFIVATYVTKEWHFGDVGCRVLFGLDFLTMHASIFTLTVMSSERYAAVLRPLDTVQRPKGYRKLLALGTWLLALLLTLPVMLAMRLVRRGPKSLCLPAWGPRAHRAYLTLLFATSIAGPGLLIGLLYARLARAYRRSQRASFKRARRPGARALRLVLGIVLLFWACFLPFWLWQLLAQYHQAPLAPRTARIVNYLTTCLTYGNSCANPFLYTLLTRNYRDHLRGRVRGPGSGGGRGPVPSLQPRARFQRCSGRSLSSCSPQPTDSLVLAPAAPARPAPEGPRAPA

Urotensin-2 receptor [2] = biological target: T1, Urotensin-2 receptor; test: Displacement of [Na125I]-synthetic URP from human UT receptor expressed in HEK293 cell membranes incubated for 2 hrs by gamma-counting
Urotensin-2 receptor [3] = biological target: T2, Urotensin-2 receptor (Rattus norvegicus, UniProt P49684); test: Agonist activity at UT receptor in Sprague-Dawley rat thoracic aortic ring assessed as induction of contraction; format: functional
T2 sequence (P49684 whole entry): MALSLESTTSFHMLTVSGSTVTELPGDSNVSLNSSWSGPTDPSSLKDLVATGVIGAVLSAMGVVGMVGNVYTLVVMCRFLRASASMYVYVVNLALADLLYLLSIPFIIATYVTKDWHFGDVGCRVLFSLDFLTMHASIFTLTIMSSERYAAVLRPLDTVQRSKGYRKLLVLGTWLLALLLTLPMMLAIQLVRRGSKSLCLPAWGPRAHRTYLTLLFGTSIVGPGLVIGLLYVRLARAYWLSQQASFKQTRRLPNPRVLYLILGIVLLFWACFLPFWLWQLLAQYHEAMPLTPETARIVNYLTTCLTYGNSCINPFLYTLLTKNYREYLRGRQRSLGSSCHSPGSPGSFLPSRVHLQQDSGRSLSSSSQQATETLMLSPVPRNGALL

Urotensin-2 receptor [4] = biological target: T1, Urotensin-2 receptor; test: Agonist activity at human UT receptor expressed in HEK293 cells co-expressing Gq-polycistronic BRET biosensor assessed as induction of Gq activation measured for 5 mins by luminescence detection based BRET assay; format: functional, cell-based
Urotensin-2 receptor [5] = biological target: T1, Urotensin-2 receptor; test: Agonist activity at human UT receptor expressed in HEK293 cells co-expressing G12-polycistronic BRET biosensor assessed as induction of G12 activation measured for 5 mins by luminescence detection based BRET assay; format: functional, cell-based
[6] = biological target: T3, Urotensin-2 receptor (Rattus norvegicus) (UniProt P49684); test: Agonist activity at UT receptor in Sprague-Dawley rat thoracic aortic ring assessed as induction of contraction relative to KCl-induced contraction; format: functional
T3 sequence (whole entry): T2 sequence (P49684 whole entry)

[7] = biological target: T4, Urotensin-2 receptor (Homo sapiens) (UniProt Q9UKP6); test: Selectivity index, change in deltalog(Tau/KA) for agonist activity at human UT receptor expressed in HEK293 cells co-expressing G12-polycistronic BRET biosensor assessed as induction of G12 activation by luminescence detection based BRET assay to deltalog(Tau/KA) for agonist activity at human UT receptor expressed in HEK293 cells co-expressing Gq-polycistronic BRET biosensor assessed as induction of Gq activation by luminescence detection based BRET assay; format: functional, cell-based
T4 sequence (whole entry): T1 sequence (Q9UKP6 whole entry)

[8] = biological target: T4, Urotensin-2 receptor (Homo sapiens); test: (§1) Selectivity index, change in deltalog(Tau/KA) for agonist activity at human UT receptor expressed in HEK293 cells co-expressing Gq-polycistronic BRET biosensor assessed as induction of Gq activation by luminescence detection based BRET assay to deltalog(Tau/KA) for agonist activity at human UT receptor expressed in HEK293 cells co-expressing beta-arrestin1-polycistronic BRET biosensor assessed as induction of beta-arrestin1 recruitment by luminescence detection based BRET assay; format: functional, cell-based
[9] = biological target: T4, Urotensin-2 receptor (Homo sapiens); test: as §1, with “Bias factor, ratio of” for “Selectivity index, change in”; format: functional, cell-based
[10] = biological target: T4, Urotensin-2 receptor (Homo sapiens); test: Bias factor, ratio of deltalog(Tau/KA) for agonist activity at human UT receptor expressed in HEK293 cells co-expressing Gq-polycistronic BRET biosensor assessed as induction of Gq activation by luminescence detection based BRET assay to deltalog(Tau/KA) for agonist activity at human UT receptor expressed in HEK293 cells co-expressing G12-polycistronic BRET biosensor assessed as induction of G12 activation by luminescence detection based BRET assay; format: functional, cell-based
[11] = biological target: T4, Urotensin-2 receptor (Homo sapiens); test: Bias factor, ratio of deltalog(Tau/KA) for agonist activity at human UT receptor expressed in HEK293 cells co-expressing G12-polycistronic BRET biosensor assessed as induction of G12 activation by luminescence detection based BRET assay to deltalog(Tau/KA) for agonist activity at human UT receptor expressed in HEK293 cells co-expressing beta-arrestin1-polycistronic BRET biosensor assessed as induction of beta-arrestin1 recruitment by luminescence detection based BRET assay; format: functional, cell-based
[12] = biological target: T4, Urotensin-2 receptor (Homo sapiens); test: Bias factor, ratio of deltalog(Tau/KA) for agonist activity at human UT receptor expressed in HEK293 cells co-expressing G12-polycistronic BRET biosensor assessed as induction of G12 activation by luminescence detection based BRET assay to deltalog(Tau/KA) for agonist activity at human UT receptor expressed in HEK293 cells co-expressing Gq-polycistronic BRET biosensor assessed as induction of Gq activation by luminescence detection based BRET assay; format: functional, cell-based
[13] = biological target: T4, Urotensin-2 receptor (Homo sapiens); test: Bias factor, ratio of deltalog(Tau/KA) for agonist activity at human UT receptor expressed in HEK293 cells co-expressing beta-arrestin1-polycistronic BRET biosensor assessed as induction of beta-arrestin1 recruitment by luminescence detection based BRET assay to deltalog(Tau/KA) for agonist activity at human UT receptor expressed in HEK293 cells co-expressing G12-polycistronic BRET biosensor assessed as induction of G12 activation by luminescence detection based BRET assay; format: functional, cell-based
[14] = biological target: T4, Urotensin-2 receptor (Homo sapiens); test: Bias factor, ratio of deltalog(Tau/KA) for agonist activity at human UT receptor expressed in HEK293 cells co-expressing beta-arrestin1-polycistronic BRET biosensor assessed as induction of beta-arrestin1 recruitment by luminescence detection based BRET assay to deltalog(Tau/KA) for agonist activity at human UT receptor expressed in HEK293 cells co-expressing Gq-polycistronic BRET biosensor assessed as induction of Gq activation by luminescence detection based BRET assay; format: functional, cell-based
[15] = biological target: T4, Urotensin-2 receptor (Homo sapiens); test: Selectivity index, change in deltalog(Tau/KA) for agonist activity at human UT receptor expressed in HEK293 cells co-expressing beta-arrestin1-polycistronic BRET biosensor assessed as induction of beta-arrestin1 recruitment by luminescence detection based BRET assay to deltalog(Tau/KA) for agonist activity at human UT receptor expressed in HEK293 cells co-expressing G12-polycistronic BRET biosensor assessed as induction of G12 activation by luminescence detection based BRET assay to; format: functional, cell-based
[16] = biological target: T4, Urotensin-2 receptor (Homo sapiens); test: Agonist activity at human UT receptor expressed in HEK293 cells co-expressing G12-polycistronic BRET biosensor assessed as induction of G12 activation measured for 5 mins by luminescence detection based BRET assay relative to 10 uM URP; format: functional, cell-based
[17] = biological target: T4, Urotensin-2 receptor (Homo sapiens); test: Agonist activity at human UT receptor expressed in HEK293 cells co-expressing beta-arrestin1-polycistronic BRET biosensor assessed as induction of beta-arrestin1 recruitment measured for 5 mins by luminescence detection based BRET assay relative to 10 uM URP; format: functional, cell-based
[18] = biological target: T4, Urotensin-2 receptor (Homo sapiens); test: Agonist activity at human UT receptor expressed in HEK293 cells co-expressing Gq-polycistronic BRET biosensor assessed as induction of Gq activation measured for 5 mins by luminescence detection based BRET assay relative to 10 uM URP; format: functional, cell-based

| EC50 (Urotensin-2 receptor [1]) [nM] | IC50 (Urotensin-2 receptor [2]) [nM] | EC50 (Urotensin-2 receptor [3]) [nM] | EC50 (Urotensin-2 receptor [4]) [nM] | EC50 (Urotensin-2 receptor [5]) [nM] | Emax [6] [%] | deltalog(Tau/KA) [7] | selectivity index, deltadeltalog(Tau/KA) [8] | fold change (FC) [9] | fold change (FC) [10] | fold change (FC) [11] | fold change (FC) [12] | fold change (FC) [13] | fold change (FC) [14] | deltadeltalog(Tau/KA) (beta-arrestin1 selectivity index) [15] | Emax [16] [%] | Emax [17] [%] | Emax [18] [%] | SMILES |
| --- | --- | --- | --- | --- | --- | --- | --- | --- | --- | --- | --- | --- | --- | --- | --- | --- | --- | --- |
| 1150 | > 1000 | 1.91 | 3550 | 661 | – | – | – | – | – | – | – | – | – | – | – | – | – | CC(C)[C@H](NC(=O)[C@@H]1CSSC[C@H](NC(=O)[C@H](C)N)C(=O)N[C@H](Cc2ccc(-c3ccccc3)cc2)C(=O)N[C@@H](Cc2c[nH]c3ccccc23)C(=O)N[C@@H](CCCCN)C(=O)N[C@@H](Cc2ccc(O)cc2)C(=O)N1)C(=O)O |
| 355 | > 1000 | 13.8 | 53.7 | 89.1 | – | – | – | – | – | – | – | – | – | – | – | – | – | CC(C)[C@H](NC(=O)[C@@H]1CSSC[C@H](NC(=O)[C@H](C)N)C(=O)N[C@H](Cc2ccc(I)cc2)C(=O)N[C@@H](Cc2c[nH]c3ccccc23)C(=O)N[C@@H](CCCCN)C(=O)N[C@@H](Cc2ccc(O)cc2)C(=O)N1)C(=O)O |
| 145 | 19.5 | 6.92 | 3.63 | 91.2 | 107 | 0 | 0 | 1 | 1 | 1 | 1 | 1 | 1 | 0 | – | – | – | CC(C)[C@H](NC(=O)[C@@H]1CSSC[C@H](NC(=O)[C@H](C)N)C(=O)N[C@@H](Cc2ccccc2)C(=O)N[C@@H](Cc2c[nH]c3ccccc23)C(=O)N[C@@H](CCCCN)C(=O)N[C@@H](Cc2ccc(O)cc2)C(=O)N1)C(=O)O |
| 3310 | > 1000 | 1.35 | 617 | 380 | – | – | – | – | – | – | – | – | – | – | – | – | – | CC(C)[C@H](NC(=O)[C@@H]1CSSC[C@H](NC(=O)[C@H](C)N)C(=O)N[C@H](Cc2ccc(C#Cc3ccccc3)cc2)C(=O)N[C@@H](Cc2c[nH]c3ccccc23)C(=O)N[C@@H](CCCCN)C(=O)N[C@@H](Cc2ccc(O)cc2)C(=O)N1)C(=O)O |
| 191 | 3.98 | 10.5 | 7.08 | 36.3 | 112 | 0.22 | -0.1 | 0.8 | 0.6 | 1.3 | 1.7 | 0.8 | 1.2 | -0.13 | 94 | 104 | 100 | CC(C)[C@H](NC(=O)[C@@H]1CSSC[C@H](NC(=O)[C@@H](N)CC(=O)O)C(=O)N[C@@H](Cc2ccc(I)cc2)C(=O)N[C@@H](Cc2c[nH]c3ccccc23)C(=O)N[C@@H](CCCCN)C(=O)N[C@@H](Cc2ccc(O)cc2)C(=O)N1)C(=O)O |
